Results published in PMC7004151, “Synthesis and Structure‐Activity Relationships of N‐(4‐Benzamidino)‐Oxazolidinones: Potent and Selective Inhibitors of Kallikrein‐Related Peptidase 6” (Chemmedchem, 2019).
Read-outs that look alike come from different tables or passages of the source.

Tests used:
Assay type in all cases: biochemical
KLK6 = KLK6 (Homo sapiens, UniProt Q92876); experiment: KLK6 enzymatic inhibition assay (fluorogenic Boc-Phe-Ser-Arg-AMC substrate); set-up: made in house; details: for IC50: read-out: KLK6 pIC50 (converted); for LipE: LipE=pIC50 – logP (KLK6 pIC50, ALogP)
Protocol: Using our previously published KLK6 assay format,21 we performed a HTS with the European Lead Factory (ELF),22 and tested ∼350,000 substances at 10 μM for their ability to reduce KLK6‐catalyzed hydrolysis of the fluorogenic Boc‐Phe‐Ser‐Arg‐AMC peptide.
High Throughput Screen: The European Lead Factory library of ∼350,000 compounds was used for high throughput screening at the Pivot Park Screening Center facilities in Oss, The Netherlands. […] For SPR, Biacore T200 was used and KLK6 was immobilized onto a CM5 chip. […] An 8 point 1 in 3 dilution series of 1 (50 μM to 0.02 μM) was also applied at the beginning and end of each screening day.
Enzyme inhibition assays: All chemicals were purchased from Sigma Aldrich (Gillingham, UK) unless otherwise stated.

Human Factor Xa = target: T1, Human Factor Xa (Homo sapiens, UniProt P00742); experiment: Factor Xa enzyme inhibition assay; details: read-out: Factor Xa pIC50 (converted)
T1 construct: Human Factor Xa was purchased from Enzo Life Sciences; purchased Enzo Life Sciences
Protocol: (§1) Human thrombin was purchased from Biopur. Human trypsin was purchased from Polymun Scientific. Human Factor Xa was purchased from Enzo Life Sciences. Thrombin (20 nM), trypsin (0.000015 %) or Factor Xa (10 nM) were assayed in a similar manner to the KLKs but were incubated with compound for 20 min at room temperature in assay buffer (50 mM Tris HCl, pH 7.6, 100 mM NaCl, 1 mg/ml CHAPS, 0.05 % bovine serum albumin (BSA), 1 mM dithiothreitol (DTT)) before the addition of 5 μM, 2.5 μM or 1.5 μM Rhodamine 110 substrate (Cambridge bioscience ltd) respectively. Fluorescence intensity was then read at ex/em 485/535 following incubation for 1 h at room temperature (thrombin and factor Xa) or 20 min (trypsin).

KLK8 = target: T2, KLK8 (Homo sapiens, UniProt O60259); experiment: KLK8 enzyme inhibition assay; details: read-out: KLK8 pIC50 (converted)
T2 construct: purchased 2B scientific
T2 sequence (O60259 33-260): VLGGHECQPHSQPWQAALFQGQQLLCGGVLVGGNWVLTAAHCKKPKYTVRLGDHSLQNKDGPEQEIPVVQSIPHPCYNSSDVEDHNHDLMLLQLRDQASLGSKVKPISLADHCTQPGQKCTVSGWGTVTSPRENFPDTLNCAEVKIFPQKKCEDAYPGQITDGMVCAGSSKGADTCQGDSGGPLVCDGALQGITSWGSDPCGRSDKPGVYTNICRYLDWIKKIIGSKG
Protocol: (§2) Enzyme inhibition assays: All chemicals were purchased from Sigma Aldrich (Gillingham, UK) unless otherwise stated. All experiments were conducted in 384 well black, low volume microplates (Greiner 784076) with a final volume of 20 μL and compounds were dispensed into assay plates using an ECHO 550 acoustic dispenser (Labcyte). KLK6 (5 nM) (prepared as in ref. 21) was incubated with test compounds for 30 min at room temperature in assay buffer (50 mM Tris, pH 7.5, 150 mM NaCl, 1 mM EDTA, 0.05 % tween 20, 0.1 % bovine serum albumin (BSA), 1 mM dithiothreitol (DTT)) before the reaction was started by addition of 20 μM Boc‐Phe‐Ser‐Arg‐AMC substrate (Bachem). Fluorescence intensity was read at ex/em 355/460 following incubation for 2 h in the dark at room temperature.
(§3) Assays using KLK7 and KLK8 (2B scientific) were conducted in the same manner as for KLK6 with the following exceptions. Both KLK7 and KLK8 required activation before assaying. KLK7 was combined with an equal volume of 20 μg/ml thermolysin (R&D systems) in activation buffer (50 mM Tris, pH 7.5, 10 mM CaCl2, 150 mM NaCl and 0.05 % Brij‐L23) and incubated at 37 °C for 2 h, the reaction was stopped with the addition of 100 mM EDTA in stop solution (50 mM Tris, 150 mM NaCl, pH 8.5). KLK8 was combined with an equal volume of 0.4 mU/mL lysyl endopeptidase (Alpha laboratories) in activation buffer (50 mM Tris, pH 8.0) and incubated at 37 °C for 30 min. Activated KLK7 (40 nM) and KLK8 (25 nM) were assayed with 40 μM Mca‐RPKPVE‐Nval‐WRK(Dnp)‐NH2 fluorogenic MMP substrate (R&D systems) and 25 μM Boc‐V‐P‐R‐AMC substrate (R&D systems), respectively.

Human trypsin = target: T3, Human trypsin (Homo sapiens, UniProt P07477); experiment: Trypsin enzyme inhibition assay; details: for IC50: read-out: Trypsin pIC50 (converted)
T3 construct: purchased Polymun Scientific
Protocol: Human thrombin was purchased from Biopur. Human trypsin was purchased from Polymun Scientific. Human Factor Xa was purchased from Enzo Life Sciences. […] Fluorescence intensity was then read at ex/em 485/535 following incubation for 1 h at room temperature (thrombin and factor Xa) or 20 min (trypsin).

Human thrombin = target: T4, Human thrombin (Homo sapiens, UniProt P00734); experiment: Thrombin enzyme inhibition assay; details: read-out: Thrombin pIC50 (converted)
T4 construct: Human thrombin was purchased from Biopur; purchased Biopur
Protocol: as §1

KLK7 = target: T5, KLK7 (Homo sapiens, UniProt P49862); experiment: KLK7 enzyme inhibition assay; details: read-out: KLK7 pIC50 (converted)
T5 construct: purchased 2B scientific
Protocol: as §2, §3

KLK4 = KLK4 (Homo sapiens, UniProt Q9Y5K2); experiment: KLK4 inhibition (selectivity); details: read-out: KLK4 pIC50 (converted)
Source text: Table 3 Activity of synthesized inhibitors against KLK6 and related proteases. | column: KLK4^a

[1] = resynthesized stereoisomers, enzymatic inhibition assay (Table 2)
[2] = synthesized inhibitors (Table 3), 8.6 = assay limit

T1 sequence (P00742 235-488 limits assumed): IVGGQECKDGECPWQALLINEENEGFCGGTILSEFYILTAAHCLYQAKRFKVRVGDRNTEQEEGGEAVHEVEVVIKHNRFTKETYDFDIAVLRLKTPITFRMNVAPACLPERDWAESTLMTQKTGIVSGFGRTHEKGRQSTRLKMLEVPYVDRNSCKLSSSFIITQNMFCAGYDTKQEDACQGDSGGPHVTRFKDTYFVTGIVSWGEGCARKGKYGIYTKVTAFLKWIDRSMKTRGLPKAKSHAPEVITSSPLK
T1 sequence (P00742 41-179 partner limits assumed): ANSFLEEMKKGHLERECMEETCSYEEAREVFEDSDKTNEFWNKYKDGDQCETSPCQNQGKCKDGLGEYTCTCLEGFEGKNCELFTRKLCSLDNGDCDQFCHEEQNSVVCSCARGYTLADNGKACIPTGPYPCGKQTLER
T5 sequence (P49862 30-253, species assumed): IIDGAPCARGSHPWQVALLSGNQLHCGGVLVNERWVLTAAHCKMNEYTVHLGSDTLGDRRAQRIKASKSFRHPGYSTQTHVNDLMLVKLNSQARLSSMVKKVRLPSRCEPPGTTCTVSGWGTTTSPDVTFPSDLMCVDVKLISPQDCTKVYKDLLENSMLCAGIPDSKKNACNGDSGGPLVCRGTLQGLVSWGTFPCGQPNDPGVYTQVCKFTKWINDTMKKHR
Sequence of KLK4 (Q9Y5K2 31-254, species assumed): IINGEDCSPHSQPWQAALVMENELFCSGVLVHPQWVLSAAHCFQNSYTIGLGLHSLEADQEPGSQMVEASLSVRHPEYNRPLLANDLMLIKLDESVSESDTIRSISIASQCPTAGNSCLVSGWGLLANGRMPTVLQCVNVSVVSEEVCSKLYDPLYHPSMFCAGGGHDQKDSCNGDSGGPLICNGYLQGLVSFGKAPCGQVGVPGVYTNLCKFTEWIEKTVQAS

Compound	IC50 (KLK6; [1]) [µM]	IC50 (Human Factor Xa) [µM]	IC50 (KLK8) [µM]	IC50 (Human trypsin) [µM]	IC50 (Human thrombin) [µM]	IC50 (KLK7) [µM]	IC50 (KLK6; [2]) [µM]	IC50 (KLK4) [µM]	LipE (KLK6)	gain in potency for KLK6 (KLK6; relative to 5) [fold]	KLK6 potency loss (KLK6; relative to 29) [fold]	selectivity against trypsin (Human trypsin; KLK6 over trypsin) [fold]	KLK6 potency loss (KLK6; relative to 32) [fold]	KLK6 potency loss (KLK6; relative to 5) [fold]
COc1cccc([C@H](C)NC(=O)[C@@H]2CN(c3ccc(C(=N)N)cc3)C(=O)O2)c1 [Compound 10]	> 20	–	–	–	–	–	–	–	–	–	–	–	–	–
COc1cccc([C@@H](C)NC(=O)[C@H]2CN(c3ccc(C(=N)N)cc3)C(=O)O2)c1 [Compound 11, (5R)‐3‐(4‐carbamimidoylphenyl)‐N‐[(R)‐1‐(3‐methoxyphenyl)ethyl]‐2‐oxooxazolidine‐5‐carboxamide]	> 20	> 20	> 20	> 20	> 20	> 20	–	–	–	–	–	–	–	–
COc1cccc(CNC(=O)[C@H]2CN(c3ccc(C(=N)N)cc3)C(=O)O2)c1 [Compound 23, (5R)‐3‐(4‐carbamimidoylphenyl)‐N‐(3‐methoxybenzyl)‐2‐oxooxazolidine‐5‐carboxamide]	–	> 20	> 20	> 20	> 20	> 20	3.98	–	–	–	–	–	–	–
CC[C@H](NC(=O)[C@H]1CN(c2ccc(C(=N)N)cc2)C(=O)O1)c1cccc(OC)c1 [Compound 24, (5R)‐3‐(4‐carbamimidoylphenyl)‐N‐[(1S)‐1‐(3‐methoxyphenyl)propyl]‐2‐oxo‐oxazolidine‐5‐carboxamide]	–	> 20	5.01	1.58	> 20	> 20	0.0316	2.51	5.16	~10	–	–	–	–
COc1cccc([C@@H](NC(=O)[C@H]2CN(c3ccc(C(=N)N)cc3)C(=O)O2)C2CC2)c1 [Compound 25, (5R)‐3‐(4‐carbamimidoylphenyl)‐N‐((1S)‐cyclopropyl(3‐methoxyphenyl)methyl)‐2‐oxooxazolidine‐5‐carboxamide]	–	> 20	0.794	0.251	> 20	> 20	0.0316	–	–	–	–	–	–	–
COc1cccc(C(C)(C)NC(=O)[C@H]2CN(c3ccc(C(=N)N)cc3)C(=O)O2)c1 [Compound 26, (5R)‐3‐(4‐carbamimidoylphenyl)‐N‐(2‐(3‐methoxyphenyl)propan‐2‐yl)‐2‐oxooxazolidine‐5‐carboxamide]	–	–	> 20	10	–	–	0.158	–	–	–	–	–	–	–
CC(C)(NC(=O)[C@H]1CN(c2ccc(C(=N)N)cc2)C(=O)O1)c1ccccc1 [Compound 27, (5R)‐3‐(4‐carbamimidoylphenyl)‐2‐oxo‐N‐(2‐phenylpropan‐2‐yl)oxazolidine‐5‐carboxamide]	–	> 20	> 20	> 20	> 20	> 20	0.794	39.8	–	–	–	–	–	–
CC(C)(NC(=O)[C@H]1CN(c2ccc(C(=N)N)cc2)C(=O)O1)C(=O)Nc1ccccc1 [Compound 28, (5R)‐3‐(4‐carbamimidoylphenyl)‐N‐(2‐methyl‐1‐oxo‐1‐(phenylamino)propan‐2‐yl)‐2‐oxooxazolidine‐5‐carboxamide]	–	–	–	6.31	–	–	0.0316	1.58	6.20	–	–	–	–	–
C[C@H](NC(=O)[C@H]1CN(c2ccc(C(=N)N)cc2)C(=O)O1)c1cccc2ccccc12 [Compound 29, (5R)‐3‐(4‐carbamimidoylphenyl)‐N‐((S)‐1‐(naphthalen‐1‐yl)ethyl)‐2‐oxooxazolidine‐5‐carboxamide]	–	> 20	1	0.794	> 20	> 20	0.0126	0.631	–	–	–	–	–	–
C[C@H](NC(=O)[C@H]1CN(c2ccc(C(=N)N)cc2)C(=O)O1)c1ccc2ccccc2c1 [Compound 30, (5R)‐3‐(4‐carbamimidoylphenyl)‐N‐[(1S)‐1‐(2‐naphthyl)ethyl]‐2‐oxo‐oxazolidine‐5‐carboxamide]	–	> 20	10	3.98	> 20	> 20	0.1	3.16	–	–	10	–	–	–
CC(C)(NC(=O)[C@H]1CN(c2ccc(C(=N)N)cc2)C(=O)O1)c1cccc2ccccc12 [Compound 31, (5R)‐3‐(4‐carbamimidoylphenyl)‐N‐(2‐(naphthalen‐1‐yl)propan‐2‐yl)‐2‐oxooxazolidine‐5‐carboxamide]	–	–	> 20	5.01	–	–	0.0794	–	–	–	~6	–	–	–
CC[C@H](NC(=O)[C@H]1CN(c2ccc(C(=N)N)cc2)C(=O)O1)c1ccnc2ccccc12 [Compound 33, (5R)‐3‐(4‐carbamimidoylphenyl)‐2‐oxo‐N‐((1S)‐1‐(quinolin‐4‐yl)propyl)oxazolidine‐5‐carboxamide]	–	–	> 20	6.31	–	–	0.126	–	–	–	–	–	–	–
CC[C@H](NC(=O)[C@H]1CN(c2ccc(C(=N)N)nc2)C(=O)O1)c1cccc2ccccc12 [Compound 34, (5R)‐3‐(6‐carbamimidoylpyridin‐3‐yl)‐N‐((1S)‐1‐(naphthalen‐1‐yl)propyl)‐2‐oxooxazolidine‐5‐carboxamide]	–	–	0.501	0.631	–	–	0.00501	–	5.76	–	–	> 100	–	–
CC[C@H](NC(=O)[C@H]1CN(c2ccc(CN)cc2)C(=O)O1)c1cccc2ccccc12 [Compound 35, (5R)‐3‐(4‐(aminomethyl)phenyl)‐N‐[(1S)‐1‐(naphthalen‐1‐yl)propyl]‐2‐oxooxazolidine‐5‐carboxamide]	–	–	10	5.01	–	–	0.316	5.01	–	–	–	–	~100	–
COc1cccc(C(C)NC(=O)C2CC(=O)N(c3ccc(C(=N)N)cc3)C2)c1 [Compound 43, (5R)‐1‐(4‐carbamimidoylphenyl)‐N‐[(1S)‐1‐(3‐methoxyphenyl)ethyl]‐5‐oxopyrrolidine‐3‐carboxamide]	–	> 20	> 20	5.01	> 20	> 20	0.316	7.94	–	–	–	–	–	–
COc1cccc([C@H](C)NC[C@H]2CN(c3ccc(C(=N)N)cc3)C(=O)O2)c1 [Compound 49, 4‐((S)‐5‐((((S)‐1‐(3‐methoxyphenyl)ethyl)amino)methyl)‐2‐oxooxazolidin‐3‐yl)benzimidamide]	–	> 20	> 20	> 20	> 20	> 20	10	–	–	–	–	–	–	40
